Source: ChEMBL document CHEMBL4265943, “Design and synthesis of potent dual inhibitors of JAK2 and HDAC based on fusing the pharmacophores of XL019 and vorinostat” (Eur J Med Chem, 2018)

Experiments:
[1] = Selectivity index, ratio of CC50 for human AC10 cells to IC50 for human MDA-MB-231 cells; format: toxicity; conditions: AC10 cells (CC50) and MDA-MB-231 cells (IC50)
[2] = Antiproliferative activity against human AC10 cells after 72 hrs by MTT assay; format: cell-based
[3] = Antiproliferative activity against mouse TAMH cells after 72 hrs by MTT assay; format: cell-based
[4] = Selectivity index, ratio of CC50 for human AC10 cells to IC50 for human MCF7 cells; format: toxicity; conditions: AC10 cells (CC50) and MCF7 cells (IC50)
[5] = Selectivity index, ratio of CC50 for human AC10 cells to IC50 for human HCT116 cells; format: toxicity; conditions: AC10 cells (CC50) and HCT116 cells (IC50)
[6] = Selectivity index, ratio of CC50 for mouse TAMH cells to IC50 for human MDA-MB-231 cells; format: toxicity; conditions: TAMH cells (CC50) and MDA-MB-231 cells (IC50)
[7] = biological target: T1, Protein deacetylase HDAC6 (Homo sapiens, UniProt Q9UBN7); test: Inhibition of HDAC6 (unknown origin) using Arg-His-Lys-Lys(Ac) as substrate preincubated with enzyme followed by substrate addition for 2 hrs and measured for 1.5 hrs at 15 mins time interval by fluorescence assay
T1 sequence (Q9UBN7 whole entry): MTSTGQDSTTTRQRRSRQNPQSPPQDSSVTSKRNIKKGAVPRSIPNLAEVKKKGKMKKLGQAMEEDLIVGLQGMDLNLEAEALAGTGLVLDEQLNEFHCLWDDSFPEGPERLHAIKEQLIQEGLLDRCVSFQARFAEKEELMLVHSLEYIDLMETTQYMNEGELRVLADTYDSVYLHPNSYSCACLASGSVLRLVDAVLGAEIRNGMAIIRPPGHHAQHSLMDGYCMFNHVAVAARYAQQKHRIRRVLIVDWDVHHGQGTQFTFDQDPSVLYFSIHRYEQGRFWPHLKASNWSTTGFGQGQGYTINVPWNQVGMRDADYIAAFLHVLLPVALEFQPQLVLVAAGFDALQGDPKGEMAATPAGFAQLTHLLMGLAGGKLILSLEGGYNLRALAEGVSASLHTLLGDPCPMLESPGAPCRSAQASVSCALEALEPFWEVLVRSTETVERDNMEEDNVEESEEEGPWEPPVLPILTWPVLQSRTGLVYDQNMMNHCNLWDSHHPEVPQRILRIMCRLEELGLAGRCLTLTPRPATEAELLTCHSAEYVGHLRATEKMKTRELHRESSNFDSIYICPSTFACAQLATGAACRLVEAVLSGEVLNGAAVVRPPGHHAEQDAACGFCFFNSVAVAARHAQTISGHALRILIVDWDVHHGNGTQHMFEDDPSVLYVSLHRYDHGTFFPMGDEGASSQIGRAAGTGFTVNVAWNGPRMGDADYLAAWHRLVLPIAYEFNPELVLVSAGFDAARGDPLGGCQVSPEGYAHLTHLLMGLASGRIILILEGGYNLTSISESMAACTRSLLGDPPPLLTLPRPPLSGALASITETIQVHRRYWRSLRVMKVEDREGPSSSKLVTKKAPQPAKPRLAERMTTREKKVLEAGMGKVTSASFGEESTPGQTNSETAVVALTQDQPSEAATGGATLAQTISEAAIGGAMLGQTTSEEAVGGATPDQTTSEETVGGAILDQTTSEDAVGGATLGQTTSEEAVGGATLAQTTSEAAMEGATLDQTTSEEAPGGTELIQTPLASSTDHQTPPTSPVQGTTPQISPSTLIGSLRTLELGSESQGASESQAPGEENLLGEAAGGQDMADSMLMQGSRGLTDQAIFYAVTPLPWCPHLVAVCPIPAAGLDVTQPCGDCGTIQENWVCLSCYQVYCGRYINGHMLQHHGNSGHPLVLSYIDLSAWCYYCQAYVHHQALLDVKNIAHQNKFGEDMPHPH

Histone deacetylase 1 = Histone deacetylase 1 (Homo sapiens, UniProt Q13547); test: Inhibition of HDAC1 (unknown origin) using Arg-His-Lys-Lys(Ac) as substrate preincubated with enzyme followed by substrate addition for 2 hrs and measured for 1.5 hrs at 15 mins time interval by fluorescence assay
[8] = Selectivity index, ratio of CC50 for human AC10 cells to IC50 for human PC3 cells; format: toxicity; conditions: AC10 cells (CC50) and PC3 cells (IC50)
[9] = biological target: Tyrosine-protein kinase JAK2 (Homo sapiens, UniProt O60674); test: Inhibition of human JAK2 using poly(Glu:Tyr)(4:1) as substrate preincubated for 20 mins followed by [gamma33P]ATP addition measured after 120 mins by ion exchange filter paper method
[10] = Selectivity index, ratio of CC50 for mouse TAMH cells to IC50 for human PC3 cells; format: toxicity; conditions: TAMH cells (CC50) and PC3 cells (IC50)
[11] = Selectivity index, ratio of CC50 for mouse TAMH cells to IC50 for human MCF7 cells; format: toxicity; conditions: TAMH cells (CC50) and MCF7 cells (IC50)
[12] = Selectivity index, ratio of CC50 for mouse TAMH cells to IC50 for human HCT116 cells; format: toxicity; conditions: TAMH cells (CC50) and HCT116 cells (IC50)
MCF7 = test: Antiproliferative activity against human MCF7 cells after 72 hrs by MTT assay; format: functional, cell-based; conditions: MCF7, 72 h
PC-3 = test: Antiproliferative activity against human PC3 cells after 72 hrs by MTT assay; format: functional, cell-based; conditions: PC-3, 72 h
HCT-116 = test: Antiproliferative activity against human HCT116 cells after 72 hrs by MTT assay; format: functional, cell-based; conditions: HCT-116, 72 h
MDA-MB-231 = test: Antiproliferative activity against human MDA-MB-231 cells after 72 hrs by MTT assay; format: functional, cell-based; conditions: MDA-MB-231, 72 h

Sequence of Histone deacetylase 1 (Q13547 whole entry): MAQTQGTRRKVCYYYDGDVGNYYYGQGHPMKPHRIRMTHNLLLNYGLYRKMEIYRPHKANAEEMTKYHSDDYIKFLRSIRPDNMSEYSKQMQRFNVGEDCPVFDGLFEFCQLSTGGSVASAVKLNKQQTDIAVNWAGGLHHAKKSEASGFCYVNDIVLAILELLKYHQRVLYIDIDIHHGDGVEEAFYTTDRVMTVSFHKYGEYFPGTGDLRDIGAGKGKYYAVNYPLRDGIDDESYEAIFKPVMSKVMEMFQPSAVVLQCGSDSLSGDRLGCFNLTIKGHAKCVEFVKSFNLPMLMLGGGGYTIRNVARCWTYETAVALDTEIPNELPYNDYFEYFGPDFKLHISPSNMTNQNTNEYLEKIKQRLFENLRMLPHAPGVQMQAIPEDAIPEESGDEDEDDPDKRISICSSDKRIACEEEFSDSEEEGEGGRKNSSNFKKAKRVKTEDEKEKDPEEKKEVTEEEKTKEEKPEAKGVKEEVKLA
Sequence of Tyrosine-protein kinase JAK2 (O60674 whole entry): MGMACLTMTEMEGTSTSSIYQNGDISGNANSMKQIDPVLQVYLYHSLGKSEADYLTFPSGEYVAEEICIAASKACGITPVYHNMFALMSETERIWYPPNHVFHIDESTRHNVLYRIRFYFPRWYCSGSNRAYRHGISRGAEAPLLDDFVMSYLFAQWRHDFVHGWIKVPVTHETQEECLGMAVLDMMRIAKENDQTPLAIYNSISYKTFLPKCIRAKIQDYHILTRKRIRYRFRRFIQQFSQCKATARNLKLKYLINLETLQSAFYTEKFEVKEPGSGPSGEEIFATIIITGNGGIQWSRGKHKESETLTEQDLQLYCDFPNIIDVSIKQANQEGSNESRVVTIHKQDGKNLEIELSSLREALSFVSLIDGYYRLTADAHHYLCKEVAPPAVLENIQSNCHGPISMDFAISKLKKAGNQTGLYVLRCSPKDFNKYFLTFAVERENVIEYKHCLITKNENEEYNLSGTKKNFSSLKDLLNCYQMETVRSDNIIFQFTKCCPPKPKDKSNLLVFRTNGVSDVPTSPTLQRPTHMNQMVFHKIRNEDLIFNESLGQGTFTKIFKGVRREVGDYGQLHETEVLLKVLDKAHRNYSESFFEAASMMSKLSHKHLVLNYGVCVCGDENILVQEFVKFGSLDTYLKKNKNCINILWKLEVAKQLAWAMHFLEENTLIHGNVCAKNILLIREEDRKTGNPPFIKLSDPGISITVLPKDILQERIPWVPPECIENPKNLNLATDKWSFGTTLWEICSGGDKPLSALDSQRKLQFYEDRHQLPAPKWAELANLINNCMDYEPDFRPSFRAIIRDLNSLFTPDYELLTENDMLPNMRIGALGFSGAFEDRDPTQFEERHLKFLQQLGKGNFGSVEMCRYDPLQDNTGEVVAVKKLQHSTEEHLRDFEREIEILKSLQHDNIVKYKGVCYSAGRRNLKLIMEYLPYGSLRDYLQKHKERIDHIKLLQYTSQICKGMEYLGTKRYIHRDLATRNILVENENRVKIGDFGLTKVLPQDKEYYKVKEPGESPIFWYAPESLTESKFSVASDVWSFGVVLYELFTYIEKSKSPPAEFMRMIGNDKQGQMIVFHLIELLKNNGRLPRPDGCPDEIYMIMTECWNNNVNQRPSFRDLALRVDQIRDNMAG

Compound	selectivity ratio [1]	CC50 at 72 h [2] [nM]	CC50 at 72 h [3] [nM]	selectivity ratio [4]	selectivity ratio [5]	selectivity ratio [6]	IC50 [7] [nM]	IC50 (Histone deacetylase 1) [nM]	selectivity ratio [8]	IC50 [9] [nM]	selectivity ratio [10]	selectivity ratio [11]	selectivity ratio [12]	IC50 (MCF7) [nM]	IC50 (PC-3) [nM]	IC50 (HCT-116) [nM]	IC50 (MDA-MB-231) [nM]
O=C(CCCCCCC(=O)Nc1ccc(-c2ccnc(Nc3cccc(N4CCCCC4)c3)n2)cc1)NO	4.02	5340	4690	5.04	3.2	3.53	9	179	7.12	6.6	6.25	4.42	2.81				
CC(=O)Nc1ccc(-c2ccnc(Nc3cccc(N4CCOCC4)c3)n2)cc1										19.6							
CC(=O)Nc1ccc(-c2ccnc(Nc3ccc(N4CCCCC4)cc3)n2)cc1										2.9							
Cc1cnc(Nc2ccc(N3CCOCC3)cc2)nc1-c1ccc(NC(=O)CCCCCCC(=O)NO)cc1		6060	7470				3.7	289						2470	1740	2530	1230
CC(=O)Nc1ccc(-c2ccnc(Nc3cccc(N4CCCCC4)c3)n2)cc1										13.8							
CC(=O)Nc1ccc(-c2nc(Nc3ccc(OCCCCCC(=O)NO)cc3)ncc2C)cc1	16	16900	5580	7.14	18.4	5.26	3.5	260	7.02	25.6	2.32	2.35	6.07	2370	2410	920	1060
O=C(Nc1ccc(-c2ccnc(Nc3ccc(N4CCOCC4)cc3)n2)cc1)[C@@H]1CCCN1														27200	14900	7340	9670
Cc1cnc(Nc2ccc(N3CCN(C)CC3)cc2)nc1-c1ccc(NC(=O)CCCCCCC(=O)NO)cc1	3.84	3720	7480	2.86	3.54	7.71	2.1	139	3.58	4.3	7.19	5.75	7.12	1300	1040	1050	970
CN1CCN(CC(=O)Nc2ccc(-c3ccnc(Nc4cccc(OCCCCCCC(=O)NO)c4)n3)cc2)CC1	9.65	6270	5110	4.75	8.14	7.86	6.8	348	5.45	109	4.44	3.87	6.64	1320	1150	770	650
CC(=O)Nc1ccc(-c2nc(Nc3cccc(OCCCCCCC(=O)NO)c3)ncc2C)cc1	3.46	4840	3940	2.83	4.07	2.81	6.1	155	1.75	3.9	1.43	2.3	3.31	1710	2760	1190	1400
CC(=O)Nc1ccc(-c2ccnc(Nc3ccc(NC(=O)CCCCC(=O)NO)cc3)n2)cc1							117	3350		58.3				43400	47300	65600	32100
CC(=O)Nc1ccc(-c2ccnc(Nc3ccc(N4CCN(C)CC4)cc3)n2)cc1										7.9							
O=C(CCCCCCC(=O)Nc1ccc(-c2ccnc(Nc3ccccc3)n2)cc1)NO	11.2	3010	7280	9.12	15.8	27	1.44	3.8	14.3	41.3	34.7	22.1	38.3	330	210	190	270
COC(=O)CCCCCCOc1ccc(Nc2nccc(-c3ccc(NC(C)=O)cc3)n2)cc1							3150	> 10000		239							
O=C(CCCCCCC(=O)Nc1ccccc1)NO [VORINOSTAT]														810			
O=C(CCCCCCC(=O)Nc1ccc(-c2ccnc(Nc3ccc(N4CCCCC4)cc3)n2)cc1)NO		11700	12900				23	934						1890	5580	1070	2830
O=C(CCCCCCOc1ccc2cc1COC/C=C/COCc1cccc(c1)-c1ccnc(n1)N2)NO															1700		
